Among the test systems are M14 melanoma; SF-268 CNS; MDA-MB-435; HOP-62 NSCLC; NCI-H522 lung; MDA-MB-231 breast; NCI-H460 lung; LOX IMVI melanoma; NCI/ADR-RES ovarian; CAKI-1 renal.
What all share (experiment): growth of human tumour cells (NCI), 48 h

Where “and” joins values, the source holds several entries; their conditions need not be identical. Equal values may be shown once.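 Growth conditions: 96-well plates. Treatment: test compound, 48 hours, 5 concentrations. Analysis: linear interpolation between bracketing concentrations; unreached endpoints set to highest concentration. At the GI50, growth is halved. TGI is the concentration that stops growth completely.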 Bounds are passed on as bounds.

Turning to `CC1(C)N=C(N)N=C(N)N1c1cccc(CCCCOc2ccccc2)c1`, the GI50 with M14 melanoma is 0.0958 µM; in the assay with SF-268 CNS, 0.0558 µM; in the assay on MDA-MB-435, less than 0.0194 µM; in the assay on HOP-62 NSCLC, 0.663 µM; in the assay on NCI-H522 lung it was 0.0614 µM; in the assay on MDA-MB-231 breast it was 0.881 µM. Moreover, the GI50 in the assay on NCI-H460 lung was less than 0.01 µM; in the assay with LOX IMVI melanoma it was 0.0395 µM; in the assay on NCI/ADR-RES ovarian, greater than 100 µM; with CAKI-1 renal, 2.7 µM. In addition, the TGI with M14 melanoma was greater than 41.3 µM; in the assay on SF-268 CNS it was 22.9 µM; in the assay on MDA-MB-435, 25 µM; in the assay with HOP-62 NSCLC, greater than 87.1 µM; in the assay on NCI-H522 lung, 13.3 µM; in the assay with MDA-MB-231 breast, 48.6 µM. Also, the TGI in the assay with NCI-H460 lung was 12.4 µM; in the assay on LOX IMVI melanoma it was 14.7 µM; in the assay on NCI/ADR-RES ovarian it was greater than 100 µM; in the assay on CAKI-1 renal, greater than 100 µM.
On to `O=C(O)CP(=O)(O)O`, for which the TGI with M14 melanoma, with SF-268 CNS, in the assay with MDA-MB-435, in the assay with HOP-62 NSCLC, with NCI-H522 lung and with MDA-MB-231 breast was greater than 100 µM each time. For the same compound, the TGI in the assay with NCI-H460 lung, in the assay with LOX IMVI melanoma, in the assay on NCI/ADR-RES ovarian and with CAKI-1 renal was greater than 100 µM in each case.
Take `O=C1/C(=C/c2ccccc2F)CN(C(=O)C(Cl)Cl)C/C1=C\c1ccccc1F`: the GI50 was 0.387 µM in the assay with M14 melanoma; 0.916 µM in the assay on SF-268 CNS; 0.313 µM in the assay with MDA-MB-435; 0.906 µM with HOP-62 NSCLC; 0.281 µM with NCI-H522 lung; 0.404 µM in the assay with MDA-MB-231 breast. The GI50 in the assay on NCI-H460 lung is 0.55 µM; in the assay with LOX IMVI melanoma it was 0.11 µM; in the assay on NCI/ADR-RES ovarian it was 0.342 µM; in the assay with CAKI-1 renal, 0.986 µM. Further, the TGI turned out to be 1.61 µM with M14 melanoma; 3.72 µM in the assay on SF-268 CNS; 1.01 µM in the assay on MDA-MB-435; 2.44 µM with HOP-62 NSCLC; 1.06 µM with NCI-H522 lung; 1.58 µM in the assay with MDA-MB-231 breast. Also, the TGI in the assay with NCI-H460 lung was determined as 2.24 µM; in the assay on LOX IMVI melanoma, 0.297 µM; with NCI/ADR-RES ovarian, 2.64 µM; with CAKI-1 renal, 2.3 µM.
For `CSc1nc(C)c(Br)c(=O)n1C1OC(COC(C)=O)C(OC(C)=O)C(OC(C)=O)C1OC(C)=O` (configuration not stated), the TGI in the assay on M14 melanoma was greater than 100 µM; in the assay with SF-268 CNS, > 100 µM and 44.2 µM; in the assay on MDA-MB-435, greater than 100 µM; with HOP-62 NSCLC, 72.3 µM and 43.9 µM; in the assay with NCI-H522 lung it was greater than 100 µM; in the assay with MDA-MB-231 breast, greater than 100 µM. Moreover, the TGI is greater than 100 µM in the assay with NCI-H460 lung; greater than 100 µM with LOX IMVI melanoma; greater than 100 µM in the assay with NCI/ADR-RES ovarian; > 100 µM and 83.9 µM with CAKI-1 renal. Further, the GI50 in the assay on NCI-H522 lung is > 100 µM and 30.9 µM; in the assay with CAKI-1 renal, > 100 µM and 33.9 µM.
As for `O=C1CCC(N2Cc3c(C#CCCCNC(=O)c4cc5c(o4)C(=O)c4ccccc4C5=O)cccc3C2=O)C(=O)N1` (configuration not stated), the GI50 with M14 melanoma is 1.85 µM; with SF-268 CNS it was 3.06 µM; with MDA-MB-435, 1.81 µM; in the assay with HOP-62 NSCLC, 2.89 µM; with NCI-H522 lung it was 1.98 µM; in the assay with MDA-MB-231 breast, 2.92 µM. Moreover, the GI50 in the assay with NCI-H460 lung is 1.99 µM; in the assay on LOX IMVI melanoma, 2.14 µM; with NCI/ADR-RES ovarian it was greater than 100 µM; with CAKI-1 renal, 14.3 µM. Besides, the TGI in the assay with M14 melanoma was determined as 3.59 µM; with SF-268 CNS it was 11.2 µM; with MDA-MB-435, 3.27 µM; in the assay on HOP-62 NSCLC, 9.32 µM; in the assay on NCI-H522 lung, 4.61 µM; in the assay on MDA-MB-231 breast, 19.6 µM. For the same compound, the TGI in the assay on NCI-H460 lung is 4.09 µM; in the assay on LOX IMVI melanoma, 5.49 µM; in the assay on NCI/ADR-RES ovarian, greater than 100 µM; in the assay on CAKI-1 renal, 30.7 µM.
As for H-HIIKKIRTWYRKAWHVLGKV-NH2, the GI50 is 4.17 µM with M14 melanoma; 3.43 µM in the assay on SF-268 CNS; 5.15 µM in the assay on MDA-MB-435; 4.59 µM with HOP-62 NSCLC; 11.1 µM with NCI-H522 lung; 6.47 µM with MDA-MB-231 breast. Further, the GI50 was 3.34 µM in the assay with NCI-H460 lung, 21.7 µM in the assay on LOX IMVI melanoma, 5.85 µM with NCI/ADR-RES ovarian and 3.32 µM with CAKI-1 renal. Further, the TGI in the assay on M14 melanoma is 22.8 µM; in the assay on SF-268 CNS it was 19.8 µM; with MDA-MB-435, 65.9 µM; with HOP-62 NSCLC, greater than 100 µM; with NCI-H522 lung it was 63.3 µM; in the assay on MDA-MB-231 breast it was 22.3 µM. Besides, the TGI in the assay on NCI-H460 lung was 92.4 µM; in the assay with LOX IMVI melanoma it was 82.3 µM; with NCI/ADR-RES ovarian it was 28.5 µM; with CAKI-1 renal, 18.3 µM.
In the case of `COc1cc(C2CC(c3ccccc3)=NN2C(C)=O)cc(OC)c1OC` (configuration not stated), the GI50 was 2.47 µM with M14 melanoma; 5.37 µM with SF-268 CNS; 0.428 µM with MDA-MB-435; 5.59 µM in the assay with HOP-62 NSCLC; 5.53 µM in the assay on NCI-H522 lung; 7.68 µM with MDA-MB-231 breast. The GI50 was 3.55 µM in the assay with NCI-H460 lung, 6.38 µM in the assay on LOX IMVI melanoma, 2.8 µM with NCI/ADR-RES ovarian and 2.45 µM in the assay on CAKI-1 renal. Further, the TGI with M14 melanoma was greater than 34.2 µM; in the assay with SF-268 CNS, greater than 100 µM; in the assay on MDA-MB-435 it was 8.27 µM; in the assay with HOP-62 NSCLC, greater than 100 µM; with NCI-H522 lung, greater than 100 µM; in the assay with MDA-MB-231 breast, greater than 100 µM. The TGI is greater than 51 µM with NCI-H460 lung, greater than 100 µM in the assay with LOX IMVI melanoma, greater than 26.1 µM in the assay on NCI/ADR-RES ovarian and greater than 100 µM in the assay with CAKI-1 renal.
Take `Cc1[nH]nc2ccc3nc(-c4ccc5[nH]ncc5c4)c4c(c3c12)CCCC4`: the GI50 in the assay with M14 melanoma is 0.604 µM; in the assay on SF-268 CNS, 1.97 µM; in the assay with MDA-MB-435, 1.23 µM; with HOP-62 NSCLC, 1.41 µM; with NCI-H522 lung, 0.446 µM; with MDA-MB-231 breast it was 1.71 µM. The GI50 in the assay with NCI-H460 lung is 0.832 µM; in the assay with LOX IMVI melanoma, 1.22 µM; in the assay on NCI/ADR-RES ovarian, 2.4 µM; with CAKI-1 renal, 0.535 µM. The TGI turned out to be 13.3 µM with M14 melanoma; 17.8 µM in the assay on SF-268 CNS; 12.9 µM in the assay on MDA-MB-435; 15.1 µM in the assay on HOP-62 NSCLC; 6.01 µM with NCI-H522 lung; 12.7 µM in the assay with MDA-MB-231 breast. Also, the TGI in the assay on NCI-H460 lung amounted to 11.2 µM; in the assay on LOX IMVI melanoma it was 11 µM; in the assay on NCI/ADR-RES ovarian it was 15.8 µM; in the assay on CAKI-1 renal, 12 µM.
